Source: patent US6180621A, “Method and treatment using 1-methylcarbapenem derivatives as an anti-helicobacter pylori agent” (Sankyo Company, Limited, priority 1996, dated 2001)
Values after ≈ are worked out from the molar mass of the structure shown. Read-outs that look alike come from different tables or passages of the source.

Experiments:
[1] = test system: helicobacter pylori; assay: In vitro activity against helicobacter pylori (MIC), agar plate; assay type: cell-based; settings: for MIC: Helicobacter pylori, 72 h, read-out: minimum inhibitory concentration (MIC)
Experimental: In vitro activity against helicobacter pylon (MIC; μg/ml)
Helicobacter pylori (H. pylori) from storage was smeared on a 7%-equine-defibrinated-blood-added brain heart infusion agar (BHIA) plate and cultured at 37° C. for 72 hours under microaerophilic and wet conditions. The colonies thus grown were picked and suspended in physiological saline to prepare a culture solution of 10^8 CFU/ml (viable microbe cell number per ml). The resulting culture solution was diluted to 10 to 50-fold with physiological saline, and one spot (about 10 μl) of the solution was inoculated on each of medicament-containing and medicament-free BHIA plates. Each of the plates was cultured at 37° C. for 72 hours under microaerophilic and wet conditions and the minimum inhibitory concentration (MIC: μg/ml) at which the growth of the colonies was inhibited was measured.

[2] = test system: helicobacter pylori; settings: background, reported; cited from earlier work
[3] = test system: helicobacter pylori 9470 strain; assay: Therapeutic effects for nude mouse infected with helicobacter pylori (viable microbe cell number, CFU/stomach); assay type: in vivo; settings: oral, once a day for 4 days, nude mice
Experimental: Therapeutic effects for nude mouse infected with helicobacter pylon Bacteria (helicobacter pylori 9470 strain) used for the test, which were cultured for 48 hours in a 2%-fetal-calf-serum-added brucella broth, were centrifuged. After removal of the supernatant, the residue was re-suspended in a 1/10 amount of a brucella broth. The resulting suspended solution was orally administered to each of three to five nude mice in an amount of […] per mouse. 10 days after the infection, administration of a medicament was started. A 0.5% tragacanth suspension of a medicament was orally administered for 4 days through an oral catheter at a dose of 0.3 ml/mouse, once a day. On the day after the final administration, the stomach was extirpated, homogenized and then diluted. […] The significant difference of Medicament B(2), Medicament C(1) or C(2) is p<0.01 (vs the control group).

[4] = H. pylori strain 9470, 37° C., 72 hours, microaerophilic, BHIA plate
[5] = H. pylori strain 9472, 37° C., 72 hours, microaerophilic, BHIA plate
[6] = H. pylori strain 9474, 37° C., 72 hours, microaerophilic, BHIA plate
[7] = H. pylori strain 9824, 37° C., 72 hours, microaerophilic, BHIA plate
[8] = H. pylori strain 9828, 37° C., 72 hours, microaerophilic, BHIA plate

| MIC [1, 4] | MIC [1, 5] | MIC [1, 7] | MIC [1, 8] | Compound | effect against helicobacter pylori [2] | further results |
| --- | --- | --- | --- | --- | --- | --- |
| 0.012 µg/mL (≈ 0.0328 µM) | 0.025 µg/mL (≈ 0.0684 µM) | 0.39 µg/mL (≈ 1.07 µM) | 0.2 µg/mL (≈ 0.547 µM) | CC1(C)S[C@@H]2[C@H](NC(=O)[C@H](N)c3ccc(O)cc3)C(=O)N2[C@H]1C(=O)O [AMPC, amoxicillin] | effective against helicobacter pylori | MIC [1, 6]: 0.05 µg/mL (≈ 0.137 µM) |
| 0.006 µg/mL (≈ 0.00802 µM) | 0.006 µg/mL (≈ 0.00802 µM) | 1.5 µg/mL (≈ 2.01 µM) | 6.25 µg/mL (≈ 8.36 µM) | CC[C@H]1OC(=O)[C@H](C)[C@@H](O[C@H]2C[C@@](C)(OC)[C@@H](O)[C@H](C)O2)[C@H](C)[C@@H](O[C@@H]2O[C@H](C)C[C@H](N(C)C)[C@H]2O)[C@](C)(OC)C[C@@H](C)C(=O)[C@H](C)[C@@H](O)[C@]1(C)O [CAM, clarithromycin] | effective against helicobacter pylori | MIC [1, 6]: 0.025 µg/mL (≈ 0.0334 µM); significant difference (p) vs the control group, viable microbe cell number (CFU/stomach) ([3]; 10 mg/kg): < 0.01 |
|  |  |  |  | C[C@@H](O)[C@H]1C(=O)N2C(C(=O)[O-])=C(S[C@H]3CNC(=O)C3)[C@H](C)[C@H]12.[Na+] [Compound 1, sodium (1R,5S,6S)-2-[(4R)-2-oxo-4pyrrolidinylthio]-6-[(1R)-1-hydroxyethyl]-1-methyl-1-carbapen-2-em-3-carboxylate] |  | minimum inhibitory concentration (MIC) [1, 5]: ≤ 6 ng/mL; minimum inhibitory concentration (MIC) [1, 6]: ≤ 6 ng/mL; minimum inhibitory concentration (MIC) [1, 7]: ≤ 6 ng/mL; minimum inhibitory concentration (MIC) [1, 8]: ≤ 6 ng/mL; MIC [1]: ≤ 0.006 µg/mL |
| ≤ 0.0006 µg/mL | ≤ 0.006 µg/mL | ≤ 0.006 µg/mL | ≤ 0.006 µg/mL | C[C@@H](O)[C@H]1C(=O)N2C(C(=O)O)=C(S[C@@H]3CC(=O)N(C)C3)[C@H](C)[C@H]12 [Compound 2] |  |  |
|  |  |  |  | C[C@@H](O)[C@H]1C(=O)N2C(C(=O)[O-])=C(S[C@H]3CC(=O)N(C)C3)[C@H](C)[C@H]12.[Na+] [Compound 3, sodium (1R,5S,6S)-2-[(4S)-1-methyl-2-oxo-4-pyrrolidinylthio]-6-[(1R)-1-hydroxyethyl]-1-methyl-1-carbapen-2-em-3-carboxylate] |  | minimum inhibitory concentration (MIC) [1, 5]: ≤ 6 ng/mL; minimum inhibitory concentration (MIC) [1, 7]: ≤ 6 ng/mL; minimum inhibitory concentration (MIC) [1, 8]: ≤ 6 ng/mL; MIC [1]: ≤ 0.006 µg/mL |
|  |  |  |  | C[C@@H](O)[C@H]1C(=O)N2C(C(=O)OCOC(=O)C(C)(C)C)=C(S[C@H]3CNC(=O)C3)[C@H](C)[C@H]12 [Compound 4, pivaloyloxymethyl (1R,5S,6S)-2-[(4R)-2-oxo-4-pyrrolidinylthio]-6-[(1R)-1-hydroxyethyl]-1-methyl-1-carbapen-2-em-3-carboxylate] |  | significant difference (p) vs the control group, viable microbe cell number (CFU/stomach) ([3]; 1 mg/kg): < 0.01; significant difference (p) vs the control group, viable microbe cell number (CFU/stomach) ([3]; 10 mg/kg): < 0.01 |
|  |  |  |  | O=C([O-])CC(O)(CC(=O)[O-])C(=O)[O-].[Bi+3] [bismuth citrate] | effective against helicobacter pylori |  |
|  |  |  |  | Cc1ncc([N+](=O)[O-])n1CCO [metronidazole] | effective against helicobacter pylori |  |
|  |  |  |  | CN(C)C1C(=O)C(C(N)=O)=C(O)C2(O)C(=O)C3=C(O)c4c(O)cccc4C(C)(O)C3CC12 (stereo not shown) [tetracycline] | effective against helicobacter pylori |  |
